Among the data in patent US8536168B2 (Novartis AG, priority 2007, dated 2013) are IC50 values, retold here.

In assay [1] the target is mouse Smoothened receptor (Mus musculus, UniProt P56726). Briefly: Smo binding assay, displacement of radio-labeled smoothened agonist, filter binding format (mouse). Particulars: displacement of small molecule agonist of Smoothened, read-out: Mouse Smo bdg., IC50. The source says:
A Smo binding assay was developed using radio-labeled smoothened agonist for compound competition.

Assay [2] has as its target human Smoothened receptor (Homo sapiens, UniProt Q99835). Briefly: Smo binding assay, displacement of radio-labeled smoothened agonist, filter binding format (human). Particulars: displacement of small molecule agonist of Smoothened, read-out: Human Smo bdg., IC50. The source says:
A Smo binding assay was developed using radio-labeled smoothened agonist for compound competition. Table 9 lists the IC50 for displacement of a small molecule agonist of Smoothened determined in a filter binding format for the mouse and human Smoothened receptor.

For assay [3], the system named is Gli-luciferase activity. Put plainly: Reporter gene assay (RGA) in TMHh12 cells, antagonism of Gli-luciferase activity in the presence of a Smo agonist. The assay is classed as cell-based. The method, then:
Activity of the compounds was evaluated using a reporter gene assay (RGA) in TMHh12 cells.

Where [4] appears, read: 25 nM small molecule Smo agonist, read-out: RGA (25 nM Smo agonist) IC50.
Where [5] appears, read: read-out: RGA (1 nM Smo agonist) IC50, 1 nM small molecule Smo agonist.

Where two headings read alike, the source gives them in different places.

human Smoothened receptor, sequence (Q99835 28-787): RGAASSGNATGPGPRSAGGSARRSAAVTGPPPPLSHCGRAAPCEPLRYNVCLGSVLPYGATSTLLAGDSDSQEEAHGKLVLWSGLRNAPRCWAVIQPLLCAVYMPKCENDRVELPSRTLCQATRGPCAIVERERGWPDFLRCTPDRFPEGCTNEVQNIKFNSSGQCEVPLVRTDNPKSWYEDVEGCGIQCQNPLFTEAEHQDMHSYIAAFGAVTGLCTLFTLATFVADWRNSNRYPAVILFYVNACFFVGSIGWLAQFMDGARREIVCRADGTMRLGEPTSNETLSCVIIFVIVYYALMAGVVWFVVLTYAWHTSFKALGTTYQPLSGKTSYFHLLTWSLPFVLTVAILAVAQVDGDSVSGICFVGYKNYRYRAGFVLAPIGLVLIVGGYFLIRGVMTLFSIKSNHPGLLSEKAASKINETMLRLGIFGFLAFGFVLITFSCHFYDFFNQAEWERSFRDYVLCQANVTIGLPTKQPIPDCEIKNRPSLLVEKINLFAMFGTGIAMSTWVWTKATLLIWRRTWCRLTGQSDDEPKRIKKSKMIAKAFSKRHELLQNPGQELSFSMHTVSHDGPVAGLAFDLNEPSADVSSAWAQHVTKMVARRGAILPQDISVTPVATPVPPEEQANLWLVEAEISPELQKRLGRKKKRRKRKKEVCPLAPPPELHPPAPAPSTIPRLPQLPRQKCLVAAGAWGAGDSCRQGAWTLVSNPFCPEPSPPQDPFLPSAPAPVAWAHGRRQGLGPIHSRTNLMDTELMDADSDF
mouse Smoothened receptor, sequence (P56726 33-793): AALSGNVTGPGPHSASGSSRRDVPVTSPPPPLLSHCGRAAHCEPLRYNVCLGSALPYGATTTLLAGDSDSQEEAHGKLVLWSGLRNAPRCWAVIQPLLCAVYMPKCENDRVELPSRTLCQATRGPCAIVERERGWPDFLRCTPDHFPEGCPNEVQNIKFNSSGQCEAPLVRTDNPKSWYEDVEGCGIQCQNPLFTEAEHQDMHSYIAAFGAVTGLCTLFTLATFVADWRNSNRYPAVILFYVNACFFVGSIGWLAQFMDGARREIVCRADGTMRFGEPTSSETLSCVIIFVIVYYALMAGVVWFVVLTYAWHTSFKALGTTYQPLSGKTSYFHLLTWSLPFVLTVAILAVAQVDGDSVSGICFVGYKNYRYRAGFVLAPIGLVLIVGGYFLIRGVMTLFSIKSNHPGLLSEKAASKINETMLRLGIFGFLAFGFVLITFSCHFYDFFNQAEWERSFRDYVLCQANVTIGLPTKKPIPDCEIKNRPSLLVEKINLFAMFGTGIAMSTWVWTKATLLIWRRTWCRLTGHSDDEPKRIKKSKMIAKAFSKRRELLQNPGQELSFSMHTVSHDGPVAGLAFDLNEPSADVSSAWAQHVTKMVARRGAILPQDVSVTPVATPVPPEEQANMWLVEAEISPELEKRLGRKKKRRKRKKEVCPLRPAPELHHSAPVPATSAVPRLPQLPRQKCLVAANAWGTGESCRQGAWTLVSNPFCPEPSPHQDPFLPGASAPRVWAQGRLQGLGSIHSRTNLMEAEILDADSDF

Consider `OC1CCN(Cc2ccc(N3CCN(c4nnc(Cc5ccccc5)c5ccccc45)CC3)nc2)C1` (stereo not drawn) [Example 223], for which the IC50 (as a rule, the concentration needed to halve the response being measured) in assay [1] is < 100 nM; in assay [2], 100 to 1000 nM; in assay [3] (setting [4]), 100 to 1000 nM; in assay [3] (setting [5]) it was < 100 nM.

As to `c1ccc(Cc2nnc(N3CCN(c4ccc(CNC5CCOCC5)cn4)CC3)c3ccccc23)cc1` [Example 225], the IC50 in assay [1] was 100 to 1000 nM; in assay [2] it was 100 to 1000 nM; in assay [3] (setting [4]), 100 to 1000 nM; in assay [3] (setting [5]), < 100 nM.

With `CN(Cc1ccc(N2CCN(c3nnc(Cc4ccccc4)c4ccccc34)CC2)nc1)C1CCOCC1` [Example 226], the concentration for half-maximal inhibition (IC50) in assay [1] is < 100 nM; in assay [2], 100 to 1000 nM; in assay [3] (setting [4]), 100 to 1000 nM; in assay [3] (setting [5]) it was < 100 nM.

In the case of `FC1CCN(Cc2ccc(N3CCN(c4nnc(Cc5ccccc5)c5ccccc45)CC3)nc2)CC1` [Example 227], the IC50 in assay [1] is < 100 nM; in assay [2], 100 to 1000 nM; in assay [3] (setting [4]), 100 to 1000 nM; in assay [3] (setting [5]), < 100 nM.

In the case of `FC1(F)CCN(Cc2ccc(N3CCN(c4nnc(Cc5ccccc5)c5ccccc45)CC3)nc2)CC1` [Example 228], the IC50 was < 100 nM in assay [1], < 100 nM in assay [2], 100 to 1000 nM in assay [3] (setting [4]) and 100 to 1000 nM in assay [3] (setting [5]).

As for `FC1(F)CN(Cc2ccc(N3CCN(c4nnc(Cc5ccccc5)c5ccccc45)CC3)nc2)C1` [Example 229], the IC50 in assay [1] is < 100 nM; in assay [2], < 100 nM; in assay [3] (setting [4]), 100 to 1000 nM; in assay [3] (setting [5]) it was 100 to 1000 nM.

`c1ccc(Cc2nnc(N3CCN(c4ccc(CNC5COC5)cn4)CC3)c3ccccc23)cc1` [Example 230]: the IC50 in assay [1] was 100 to 1000 nM; in assay [2], 100 to 1000 nM; in assay [3] (setting [4]) it was 100 to 1000 nM; in assay [3] (setting [5]), < 100 nM.

In the case of `c1ccc(Cc2nnc(N3CCN(c4ccc(CN(C5COC5)C5COC5)cn4)CC3)c3ccccc23)cc1` [Example 231], the 50% inhibitory concentration (IC50) in assay [1], in assay [2], in assay [3] (setting [4]) and in assay [3] (setting [5]) was < 100 nM throughout.

Take `CN(C)C(=O)Nc1ccc(N2CCN(c3nnc(Cc4ccccc4)c4ccccc34)CC2)nc1` [Example 238, 3-{6-[4-(4-Benzyl-phthalazin-1-yl)-piperazin-1-yl]-pyridin-3-yl}-1,1-dimethyl-urea]: the IC50 was 100 to 1000 nM in assay [1], 100 to 1000 nM in assay [2], 100 to 1000 nM in assay [3] (setting [4]) and < 100 nM in assay [3] (setting [5]).

On to `COC(=O)Nc1ccc(N2CCN(c3nnc(Cc4ccccc4)c4ccccc34)CC2)nc1` [Example 239, {6-[4-(4-Benzyl-phthalazin-1-yl)-piperazin-1-yl]-pyridin-3-yl}-carbamic acid methyl ester], for which the concentration for half-maximal inhibition (IC50) was < 100 nM in assay [1], 100 to 1000 nM in assay [2], 100 to 1000 nM in assay [3] (setting [4]) and < 100 nM in assay [3] (setting [5]).

With `FC(F)(F)c1ccc(N2CCN(c3nnc(Cc4ccccc4)c4c3C=CCC4)CC2)nc1` [Example 240, 4-Benzyl-1-(4-(5-(trifluoromethyl)pyridin-2-yl)piperazin-1-yl)-5,6-dihydrophthalazine], the half-maximal inhibitory concentration (IC50) in assay [1] was < 100 nM; in assay [2] it was < 100 nM; in assay [3] (setting [4]), 100 to 1000 nM; in assay [3] (setting [5]), 100 to 1000 nM.

For the compound `Cc1c(Cc2ccccc2)nnc(N2CCN(c3ccc(C(F)(F)F)cn3)CC2)c1CNCc1ccccc1` [Example 241, N-benzyl-1-(6-benzyl-5-methyl-3-(4-(5-(trifluoromethyl)pyridin-2-yl)piperazin-1-yl)pyridazin-4-yl)methanamine], the concentration for half-maximal inhibition (IC50) in assay [1] lay within 1000 to 10000 nM; in assay [2] it was 1000 to 10000 nM; in assay [3] (setting [4]) it was 10000 to 40000 nM; in assay [3] (setting [5]), 1000 to 10000 nM.

As for `Cc1c(N2CCN(c3ccc(C(F)(F)F)cn3)CC2)nnc(Cc2ccccc2)c1CNCc1ccccc1` [Example 242, N-benzyl-1-(3-benzyl-5-methyl-6-(4-(5-(trifluoromethyl)pyridin-2-yl)piperazin-1-yl)pyridazin-4-yl)methanamine], the half-inhibitory concentration (IC50) in assay [1], in assay [2], in assay [3] (setting [4]) and in assay [3] (setting [5]) was 1000 to 10000 nM each time.

On to `COc1ccc(CN2Cc3c(Cc4ccccc4)nnc(N4CCN(c5ccc(C(F)(F)F)cn5)CC4)c3C2)cc1` [Example 243, 1-benzyl-6-(4-methoxybenzyl)-4-(4-(5-(trifluoromethyl)pyridin-2-yl)piperazin-1-yl)-6,7-dihydro-5H-pyrrolo[3,4-d]pyridazine], for which the half-inhibitory concentration (IC50) in assay [1] lay in the range of 100 to 1000 nM; in assay [2] it was 1000 to 10000 nM; in assay [3] (setting [4]), 1000 to 10000 nM; in assay [3] (setting [5]) it was 1000 to 10000 nM.

As for `CC(C)n1cc2c(Cc3ccccc3)nnc(N3CCN(c4ccc(C(F)(F)F)cn4)CC3)c2c1` [Example 244, 1-benzyl-6-isopropyl-4-(4-(5-(trifluoromethyl)pyridin-2-yl)piperazin-1-yl)-6H-pyrrolo[3,4-d]pyridazine], the IC50 in assay [1] was in the range of 100 to 1000 nM; in assay [2], 100 to 1000 nM; in assay [3] (setting [4]), 1000 to 10000 nM; in assay [3] (setting [5]), 1000 to 10000 nM.

Take `FC(F)(F)c1ccc(N2CCN(c3nnc(Cc4ccccc4)c4occc34)CC2)nc1` [Example 245, 7-Benzyl-4-[4-(5-trifluoromethyl-pyridin-2-yl)-piperazin-1-yl]-furo[2,3-d]pyridazine]: the 50% inhibitory concentration (IC50) was 100 to 1000 nM in assay [1], 100 to 1000 nM in assay [2], 1000 to 10000 nM in assay [3] (setting [4]) and < 100 nM in assay [3] (setting [5]).

Regarding `FC(F)(F)c1ccc(N2CCN(c3nnc(Cc4ccccc4)c4ccoc34)CC2)nc1` [Example 246, 4-Benzyl-7-[4-(5-trifluoromethyl-pyridin-2-yl)-piperazin-1-yl]-furo[2,3-d]pyridazine], the IC50 in assay [1] is 10000 to 40000 nM; in assay [2], 1000 to 10000 nM; in assay [3] (setting [4]), 1000 to 10000 nM; in assay [3] (setting [5]), < 100 nM.

On to `FC(F)(F)c1ccc(N2CCN(c3nnc(Cc4ccccc4)c4[nH]cnc34)CC2)nc1` [Example 247, 7-Benzyl-4-[4-(5-trifluoromethyl-pyridin-2-yl)-piperazin-1-yl]-1H-imidazo[4,5-d]pyridazine], for which the IC50 lay within 100 to 1000 nM in assay [1], 100 to 1000 nM in assay [2], 1000 to 10000 nM in assay [3] (setting [4]) and 1000 to 10000 nM in assay [3] (setting [5]).
